Columns and labels:
[1] = test system: Occludin, Claudin-1, ZO-1 gene expression; assay: q-PCR of tight junction gene expression in colons; assay type: in vivo, C57BL/6 mice; settings: for gene expressions of ZO-1: p<0.05
Procedure: The C57BL/6 mice, which weighed between 23 and 25 g, were divided into seven groups randomly. In each group, the six mice induced by blue light successfully were incorporated in experiments. The samples dissolved in deuterium-depleted water (DDW) were fed to mice through oral tubes once a day. The groups were named and introduced as follows: • (1) Solvent not classified group (NC): The mice were fed with 0.2 ml deuterium-depleted water (DDW) through tubes; • (2) Negative control group (Blue light (BL)): The mice were fed with 0.2 ml deuterium-depleted water (DDW) through tubes and exposed to blue light; • (3) Low-dosage Y7 probiotics group […]): The mice were fed with low-dosage Y7 probiotics (probiotic counts of 1.0×10^8 CFU/ml dissolved in 0.2 ml DDW per day) and exposed to blue light; • (4) High-dosage Y7 probiotics group […]): The mice were fed with high-dosage Y7 probiotics (probiotic counts of 1.0×10^9 CFU/ml dissolved in 0.2 ml DDW per day) and exposed to blue light; • (5) Positive control group (lutein (LU)): The mice were fed with lutein and exposed to blue light. The recommended human dosage of lutein is 30 mg. The mouse cage (48×25×20 cm) placed inside a stainless ventilated box was equipped with blue light boards as blue light sources around and above. In the experiment of animals exposed to blue light, six-week-old mice staying in the mouse cage were fed with drinking water as well as fodders and exposed to 400 Lux blue light illumination under the light-dark cycle of 12-hour light and 12-hour dark. The experiment was aimed at causing mice' late dry macular disease induced by chronic light injuries for simulating a human being's macular disease after long-term exposure to short-wavelength blue light from 3C products in daily life. The eyes of a mouse sacrificed were collected for the following purposes. RNAs extracted with Trizol were reverse-transcribed to cDNAs. Then, the real-time quantitative polymerase chain reaction was enabled to detect gene expressions related to inflammatory hormones and apoptosis such as TNF-α, IL-1B, IL-6, Bax, Bcl-2, Caspase1, Caspase3 and NLRP3 for comparisons with the endogenous level of β-actin, GAPDH or 18S rRNA. [table] The gene expressions related to tight junctions of mice' eyes, buccal mucosas and colons after induction of blue light were analyzed through q-PCR and shown in FIG. 10a, FIG. 10d and FIG. 10g for Occludin, FIG. 10b, FIG. 10e and FIG. 10h for Claudin-1 and FIG. 10c, FIG. 10f and FIG. 10i for ZO-1, respectively.

[2] = test system: catalase (CAT); assay: serum antioxidant enzyme activity by ELISA: CAT; assay type: in vivo, C57BL/6 mice
Procedure: The C57BL/6 mice, which weighed between 23 and 25 g, were divided into seven groups randomly. In each group, the six mice induced by blue light successfully were incorporated in experiments. The samples dissolved in deuterium-depleted water (DDW) were fed to mice through oral tubes once a day. The groups were named and introduced as follows: • (1) Solvent not classified group (NC): The mice were fed with 0.2 ml deuterium-depleted water (DDW) through tubes; • (2) Negative control group (Blue light (BL)): The mice were fed with 0.2 ml deuterium-depleted water (DDW) through tubes and exposed to blue light; • (3) Low-dosage Y7 probiotics group (Y7L): The mice were fed with low-dosage Y7 probiotics (probiotic counts of 1.0×10^8 CFU/ml dissolved in 0.2 ml DDW per day) and exposed to blue light; • (4) High-dosage Y7 probiotics group (Y7H): The mice were fed with high-dosage Y7 probiotics (probiotic counts of 1.0×10^9 CFU/ml dissolved in 0.2 ml DDW per day) and exposed to blue light; • (5) Positive control group (lutein (LU)): The mice were fed with lutein and exposed to blue light. The recommended human dosage of lutein is 30 mg.
The mouse cage (48×25×20 cm) placed inside a stainless ventilated box was equipped with blue light boards as blue light sources around and above. […]
The performance of antioxidant enzymes in serums was analyzed through the enzyme-linked immunosorbent assay (ELISA).

With “Lactobacillus reuteri Y7 [Y7 probiotics]” the “gene expressions of Claudin-1” value ([1]; Y7H high-dosage group) was “ascending trend”, the “gene expressions of Occludin” value ([1]; Y7H high-dosage group) was “ascending trend” and the “gene expressions of ZO-1” value ([1]; Y7H high-dosage group) was “increased significantly”. The “gene expressions of Claudin-1” value ([1]; Y7L low-dosage group) was “ascending trend”, the “gene expressions of Occludin” value ([1]; Y7L low-dosage group) was “ascending trend” and the “gene expressions of ZO-1” value ([1]; Y7L low-dosage group) was “increased significantly”. For the same substance, the “activity of catalase (CAT) compared with the BL group” value ([2]; Y7H high-dosage group) was “increased significantly” and the “activity of catalase (CAT) compared with the BL group” value ([2]; Y7L low-dosage group) was “increased significantly”.

Source: patent publication US20250099517A1, “Use of Lactobacillus reuteri Y7 strain for prevention or treatment of ocular diseases” (Taipei Medical University, priority 2023, published 2025)
